Source: patent publication US20250152719A1, “FUSED IMIDE DERIVATIVE” (Chia Tai Tianqing Pharmaceutical Group Co., Ltd., priority 2021, published 2025)
Where two headings read alike, the source gives them in different places. Blank lines part the entries; values can stand above or below the molecule they belong to.

How the values were obtained:
[1] = tested on: OCI-LY10-BTK(C481S) cells; test: Inhibitory activity on OCI-LY10-BTK(C481S) cell proliferation (CCK-8); format: cell-based; details: 72 h incubation, IC50 per method, unit inferred
Description: OCI-LY10(C481S) cells in the logarithmic growth phase were collected and added to a centrifuge tube, adjusted to a cell density of 5×10^4 cells/mL, and seeded in a 96-well plate (100 μL/well). Meanwhile, compounds were added using a nanoliter pipettor such that the final concentrations of the compounds were 5000 nM-0.31 nM; the addition was performed in duplicate, and meanwhile, a control was set. After another 72 h of incubation in the cell incubator, the detection reagent CCK-8 (manufacturer: Dojindo Laboratories, Beijing; 10 μL/well) was added. After 3 h of incubation in the cell incubator, absorbance values were detected at 450 nm using a PerkinElmer Envision microplate reader, the four-parameter analysis was performed, the dose-response curves were fit, and IC50 was calculated.

BTK = BTK (Homo sapiens (Human), UniProt Q06187); test: BTK degradation in OCI-LY10 cells (Total-BTK HTRF kit); format: cell-based; details: 24 (or 6) h incubation; for DC50 / BTK degradation in OCI-LY10 cells Dmax: OCI-LY10 cells; for DC50: DC50 = concentration when degradation rate reaches 50%, read-out: OCI-LY10 cell BTK degradation DC50; for BTK degradation in OCI-LY10 cells Dmax / Dmax: maximum degradation rate; for Dmax: OCI-Ly10, OCI-LY10 cells
BTK, sequence (Q06187 whole entry): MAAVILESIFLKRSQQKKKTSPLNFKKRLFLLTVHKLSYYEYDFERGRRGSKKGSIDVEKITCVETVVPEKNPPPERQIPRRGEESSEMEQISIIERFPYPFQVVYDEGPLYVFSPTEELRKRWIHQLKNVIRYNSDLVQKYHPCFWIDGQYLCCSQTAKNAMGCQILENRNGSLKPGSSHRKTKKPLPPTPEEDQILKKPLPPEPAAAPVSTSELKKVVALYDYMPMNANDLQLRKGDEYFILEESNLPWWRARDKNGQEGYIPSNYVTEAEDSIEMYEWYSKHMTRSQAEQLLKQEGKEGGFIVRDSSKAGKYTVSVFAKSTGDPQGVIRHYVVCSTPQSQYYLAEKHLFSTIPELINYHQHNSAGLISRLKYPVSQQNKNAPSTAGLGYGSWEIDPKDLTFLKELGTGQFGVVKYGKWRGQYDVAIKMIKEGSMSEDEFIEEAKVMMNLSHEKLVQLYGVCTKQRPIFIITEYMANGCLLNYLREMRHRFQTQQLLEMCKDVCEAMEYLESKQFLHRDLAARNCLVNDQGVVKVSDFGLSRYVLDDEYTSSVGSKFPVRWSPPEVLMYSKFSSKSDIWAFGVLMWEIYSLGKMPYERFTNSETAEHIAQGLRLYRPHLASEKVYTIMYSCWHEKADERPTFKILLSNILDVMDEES
Outline: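 OCI-LY10 cells seeded overnight, then treated with compound at 100 nM-0.098 nM in duplicate for 24 (or 6) h. Lysates probed by Total-BTK HTRF (d2/Eu cryptate antibodies, overnight, room temperature), read at 665/620 nm; DC50 and Dmax from four-parameter dose-response fits.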

[2] = In vitro liver microsomal stability, mouse; details: 0.5 mg/mL microsomes, NADPH, 37° C., 1 h
Description: (§2) Liver microsome incubation samples were prepared by mixing a PBS buffer (pH 7.4), a liver microsome solution (0.5 mg/mL), a test compound, and an NADPH+MgCl2 solution and incubated at 37° C. and 300 rpm for 1 h. Zero-hour samples were prepared by mixing a PBS buffer (pH 7.4), a liver microsome solution (0.5 mg/mL), and a test compound. An acetonitrile solution containing an internal standard was added to the samples, and supernatants were prepared by protein precipitation, diluted, and then assayed by LC/MS/MS.

OCI-LY10 cells = test: Inhibitory activity on OCI-LY10 cell proliferation (CCK-8); format: cell-based
Description: OCI-LY10 cells in a good growth state were collected and added to a centrifuge tube, adjusted to a cell density of 1×10^5 cells/mL, and seeded in a 96-well plate (100 μL/well). The cells were incubated overnight in a cell incubator. Compounds were added using a nanoliter pipettor such that the final concentrations of the compounds were 5000 nM-0.31 nM; the addition was performed in duplicate, and meanwhile, a control was set. After another 72 h of incubation in the cell incubator, 10 μL of CCK-8 (CK04, PP799) was added. After 2.5 h of incubation in the cell incubator, absorbance values were detected at 450 nm using an Envision microplate reader, the four-parameter analysis was performed, the dose-response curves were fit, and IC50 was calculated.

EGFR kinase = EGFR kinase (Homo sapiens (Human), UniProt P00533); test: Inhibitory activity on EGFR kinase; format: biochemical; details: ATP 5 μM
EGFR kinase, sequence (P00533 669-1210): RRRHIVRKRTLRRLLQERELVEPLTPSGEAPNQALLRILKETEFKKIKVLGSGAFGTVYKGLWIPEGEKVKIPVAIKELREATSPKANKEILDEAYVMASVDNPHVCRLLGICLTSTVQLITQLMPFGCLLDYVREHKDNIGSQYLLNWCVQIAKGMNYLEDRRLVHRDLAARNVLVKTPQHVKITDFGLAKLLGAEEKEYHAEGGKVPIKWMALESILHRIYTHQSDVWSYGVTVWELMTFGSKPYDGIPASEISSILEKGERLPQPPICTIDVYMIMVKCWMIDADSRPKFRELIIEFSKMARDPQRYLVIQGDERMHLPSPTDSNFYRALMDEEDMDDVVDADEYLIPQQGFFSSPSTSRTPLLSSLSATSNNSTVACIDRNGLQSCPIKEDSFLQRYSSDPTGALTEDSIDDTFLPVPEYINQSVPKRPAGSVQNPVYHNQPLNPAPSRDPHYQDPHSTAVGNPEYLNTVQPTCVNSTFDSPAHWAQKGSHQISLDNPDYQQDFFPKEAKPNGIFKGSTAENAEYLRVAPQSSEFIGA
Description: (§1) The Assay Buffer was prepared, and the composition of the Assay Buffer was 50 mM Hepes (Gibco, 15630), 10 mM MgCl2, 2 mM DTT, 1 mM EGTA, and 0.010% Tween 20. EGFR kinase (Carna, 08-115), ATP (Sigma, A7699), and ULight-poly GT (PE, TRF0100-M) working solutions were prepared using the Assay Buffer. EDTA and Eu-labeled anti-phosphotyrosine (PT66) antibody (PE, AD0069) working solutions were prepared using the Detection Buffer. 6 μL of EGFR kinase at the corresponding concentration (final concentration: 0.006 ng/μL) was added to the compound groups and the control group, while 6 μL of the Assay Buffer was added to the blank group, and then the compounds (with the concentration set to 1000 nM at the maximum, 4-fold dilution, 7 concentration gradients) were added using a nanoliter pipettor. The mixture was incubated at room temperature for 30 min, and then 4 μL of the mixture of ATP (final concentration: 5 μM) and ULight-poly GT (final concentration: 100 nM) was added. After incubation at room temperature for 2 h, 5 μL of EDTA (final concentration: 10 mM) was added to stop the reaction, and finally 5 μL of antibody (final concentration: 2 nM) was added. After incubation at room temperature for 1 h, signal values were detected at 665/615 nM, the four-parameter analysis was performed, the dose-response curves were fit, and IC50 was calculated.

TMD8-BTK(C481S) cells = test: Inhibitory activity on TMD8-BTK(C481S) cell proliferation (CCK-8); format: cell-based; details: 72 h incubation
Outline: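 Cells seeded at 8×10^4 cells/mL, incubated overnight, then treated in duplicate with compounds at 5000 nM-0.31 nM for 72 h. Viability by CCK-8 (4 h, absorbance 450 nm); IC50 from four-parameter dose-response fits.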

BTK(C481S) kinase = BTK(C481S) kinase (Homo sapiens (Human), UniProt Q06187, C481S); test: Inhibitory activity on BTK(C481S) kinase; format: biochemical; details: ATP 10 μM
BTK(C481S) kinase, sequence (Q06187 whole entry C481S): as the sequence (Q06187 whole entry) above, with C481S counted along it
Description: as §1, with “20. BTK(C481S)” for “20. EGFR”, “kinase (Carna Biosciences, 08-547),” for “kinase (Carna, 08-115),”, “of BTK(C481S)” for “of EGFR”, “concentration: 0.005” for “concentration: 0.006”, “concentration: 10” for “concentration: 5”

BTK(WT) kinase = BTK(WT) kinase (Homo sapiens (Human), UniProt Q06187); test: Inhibitory activity on BTK(WT) kinase; format: biochemical; details: ATP 10 μM
BTK(WT) kinase, sequence (Q06187 whole entry): as the sequence (Q06187 whole entry) above
Description: The Assay Buffer was prepared, and the composition of the Assay Buffer was 50 mM Hepes (Gibco, 15630), 10 mM MgCl2, 2 mM DTT, 1 mM EGTA, and 0.010% Tween 20. BTK(WT) kinase (Life, PR5442A), ATP (Sigma, A7699), and ULight-poly GT (PE, TRF0100-M) working solutions were prepared using the Assay Buffer. EDTA and Eu-labeled anti-phosphotyrosine (PT66) antibody (PE, AD0069) working solutions were prepared using the Detection Buffer (PE, CR97-100). 6 μL of BTK(WT) kinase at the corresponding concentration (final concentration: 0.003 ng/L) was added to the compound groups and the control group, while 6 μL of the Assay Buffer was added to the blank group, and then the compounds (with the concentration set to 1000 nM at the maximum, 4-fold dilution, 7 concentration gradients) were each added using a nanoliter pipettor. The mixture was incubated at room temperature for 30 min, and then 4 μL of the mixture of ATP (final concentration: 10 μM) and ULight-poly GT (final concentration: 100 nM) was added. After incubation at room temperature for 2 h, 5 μL of EDTA (final concentration: 10 mM) was added to stop the reaction, and finally 5 μL of antibody (final concentration: 2 nM) was added. After incubation at room temperature for 1 h, signal values were detected at 665/615 nM, the four-parameter analysis was performed, the dose-response curves were fit, and IC50 was calculated.

TMD-8 xenograft tumors = test: In vivo drug efficacy, TMD-8 mouse subcutaneous xenograft tumors; set-up: species or system NOD-SCID mice; details: 30 mg/kg, qd, i.g.; for TGI d 17: 16 days, tumor weight on day 17; for TV on d 0 Mean ± SD: day 0 (baseline at grouping); for TV on d 12 Mean ± SD: day 12; for TV on d 15 Mean ± SD: day 15
Description: TMD-8 mouse subcutaneous xenograft tumors: TMD-8 (WT) cells at a concentration of 1×10^8/mL were inoculated under aseptic conditions into the right side armpit of NOD-SCID mice at 0.1 mL/mouse. After subcutaneous grafting, the animals were divided into groups with 6 animals in each group when the tumor volume reached about 188 mm^3 (or 200 mm^3):
model group: vehicle, 6 mice; compound administration groups: 30 mg/kg, qd, i.g., 6 mice.
The vehicle or the test compound was intragastrically given at a volume of 4 mL/kg, once daily for 16 consecutive days. The tumor volume was measured 2-3 times a week, and meanwhile, the mice were weighed and the data were recorded; the general behaviors of the animals were observed every day. After all dosing was complete, the animals were sacrificed on day 17, and the tumors were removed and weighed.
The tumor volume and the tumor growth inhibition were calculated using the following formulae:
Tumor volume (TV)=(Length×Width^2)/2.
Tumor growth inhibition (TGI)=(1−tumor weight of treatment group/tumor weight of model group)×100%.

[3] = In vitro liver microsomal stability, human; format: in vitro ADME; details: 0.5 mg/mL microsomes, NADPH, 37° C., 1 h
Description: as §2

Mouse pharmacokinetics = format: in vivo, ICR mice; details: for clearance / half-life / AUC / Cmax: ICR, mouse, plasma; for AUC: read-out: AUC; for Cmax: read-out: Cmax
Description: ICR mice weighing 18-22 g were randomized into groups of 9 after 3-5 days of acclimatization and then intragastrically given the test compound solution at a dose of 10 mg/kg. Plasma samples to be tested were prepared by taking blood from the orbit at time points of 15 min, 30 min, 1 h, 2 h, 3 h, 4 h, 6 h, 8 h, 10 h, and 24 h. 20 μL of each plasma sample to be detected and a standard curve sample were taken, and an acetonitrile solution containing an internal standard was added. […] Pharmacokinetic parameters were fitted using a non-compartmental model (see Table 5).

[4] = po, 10 mg/kg, Mouse i.g. 10 mpk

SMILES: CN1CCN([C@@H]2CCCN(c3cnc(C(N)=O)c(Nc4ccc(C5CCN(C[C@@H]6CCC(c7cc8onc(C9CCC(=O)NC9=O)c8c8cc[nH]c78)C6)CC5)cc4)n3)C2)C1=O (some centres unmarked) [Compound 13]
IC50 [1]: < 0.31 nM
DC50 (BTK): < 0.098 nM
BTK degradation in OCI-LY10 cells Dmax (BTK): 100%
Mouse liver microsome Residuals at 60 min [2]: 56.41%
IC50 (OCI-LY10 cells; 72 h incubation): < 0.31 nM

SMILES: CN1CCN([C@@H]2CCCN(c3cnc(C(N)=O)c(Nc4ccc(C5CCN(C[C@@H]6CCC(c7cc8[nH]ccc8c8c(C9CCC(=O)NC9=O)noc78)C6)CC5)cc4)n3)C2)C1=O (some centres unmarked) [Compound 14]
IC50 [1]: < 0.31 nM
DC50 (BTK): < 0.098 nM
BTK degradation in OCI-LY10 cells Dmax (BTK): 100%
Mouse liver microsome Residuals at 60 min [2]: 62.41%
IC50 (OCI-LY10 cells; 72 h incubation): < 0.31 nM

SMILES: CN1CCN([C@@H]2CCCN(c3cnc(C(N)=O)c(Nc4ccc(C5CCN(C6CN(c7cc8onc(C9CCC(=O)NC9=O)c8c8ccccc78)C6)CC5)cc4)n3)C2)C1=O (some centres unmarked) [Compound 93]
IC50 ([1]; 72 h): 0.7 nM
Human liver microsome Residuals at 60 min [3]: 53.0%
Dmax (BTK): > 90%
Mouse liver microsome Residuals at 60 min [2]: 72.0%

Second part, led by results:

IC50 (EGFR kinase): 69 nM
Dmax (BTK): > 90%
IC50 (BTK(C481S) kinase): 0.81 nM
Mouse liver microsome Residuals at 60 min [2]: 63.1%
IC50 (BTK(WT) kinase): 0.42 nM
SMILES: CN1CCN([C@@H]2CCCN(c3cnc(C(N)=O)c(Nc4ccc(C5CCC6(CC5)CCN(CC5Cc7ccc8c(C9CCC(=O)NC9=O)noc8c7C5)CC6)cc4)n3)C2)C1=O (some centres unmarked) [Compound 50]
IC50 (TMD8-BTK(C481S) cells; 72 h): 4 nM

IC50 (EGFR kinase): 279 nM
Dmax (BTK): > 90%
IC50 (BTK(C481S) kinase): 9.1 nM
Mouse liver microsome Residuals at 60 min [2]: 47.0%
IC50 (BTK(WT) kinase): 5.4 nM
SMILES: CN1CCN([C@@H]2CCCN(c3cnc(C(N)=O)c(Nc4ccc(C5CCC6(CC5)CC(N5CCc7ccc8c(C9CCC(=O)NC9=O)noc8c7CC5)C6)cc4)n3)C2)C1=O (some centres unmarked) [Compound 59]
IC50 (TMD8-BTK(C481S) cells; 72 h): 12 nM

Human liver microsome Residuals at 60 min [3]: 80.0%
Mouse liver microsome Residuals at 60 min [2]: 85.0%
clearance (Mouse pharmacokinetics; iv, 1 mg/kg, Mouse i.v. 1 mpk): 2 mL/min/kg
half-life (Mouse pharmacokinetics; iv, 1 mg/kg, Mouse i.v. 1 mpk): 156 min
AUC (Mouse pharmacokinetics; iv, 1 mg/kg, Mouse i.v. 1 mpk): 8030 ng·h/mL
half-life (Mouse pharmacokinetics; [4]): 420 min
AUC (Mouse pharmacokinetics; [4]): 41400 ng·h/mL
Cmax (Mouse pharmacokinetics; [4]): 2730 ng/mL
F (Mouse pharmacokinetics; Mouse i.g. 10 mpk): 51.6%
SMILES: NC(=O)c1ncc(N2CCCCC2)nc1Nc1ccc(C2CCN(C3Cc4ccc5c(C6CCC(=O)NC6=O)noc5c4C3)CC2)cc1 (centres unmarked) [Compound 69]
TGI d 17 (TMD-8 xenograft tumors): 96.4%
TV on d 0 Mean ± SD (TMD-8 xenograft tumors): 226 ± 21 mm^3
TV on d 12 Mean ± SD (TMD-8 xenograft tumors): 246 ± 56 mm^3
TV on d 15 Mean ± SD (TMD-8 xenograft tumors): 199 ± 72 mm^3
IC50 (TMD8-BTK(C481S) cells): 5.7 nM

Human liver microsome Residuals at 60 min [3]: 94.0%
Dmax (BTK): > 90%
clearance (Mouse pharmacokinetics; iv, 1 mg/kg, Mouse i.v. 1 mpk): 12 mL/min/kg
half-life (Mouse pharmacokinetics; iv, 1 mg/kg, Mouse i.v. 1 mpk): 138 min
AUC (Mouse pharmacokinetics; iv, 1 mg/kg, Mouse i.v. 1 mpk): 1290 ng·h/mL
half-life (Mouse pharmacokinetics; [4]): 276 min
AUC (Mouse pharmacokinetics; [4]): 8300 ng·h/mL
Cmax (Mouse pharmacokinetics; [4]): 634 ng/mL
F (Mouse pharmacokinetics; Mouse i.g. 10 mpk): 64.50%
SMILES: NC(=O)c1ncc(N2CCCCC2)nc1Nc1ccc(N2CCC(CN3CCc4ccc5c(C6CCC(=O)NC6=O)noc5c4CC3)CC2)cc1 (centres unmarked) [Compound 72]
TGI d 17 (TMD-8 xenograft tumors): 97.9%
TV on d 0 Mean ± SD (TMD-8 xenograft tumors): 226 ± 21 mm^3
TV on d 12 Mean ± SD (TMD-8 xenograft tumors): 246 ± 52 mm^3
TV on d 15 Mean ± SD (TMD-8 xenograft tumors): 122 ± 78 mm^3
IC50 (TMD8-BTK(C481S) cells; 72 h): 2.6 nM

IC50 ([1]; 72 h): 0.53 nM
Human liver microsome Residuals at 60 min [3]: 81.0%
Dmax (BTK): > 90%
Mouse liver microsome Residuals at 60 min [2]: 75.0%
IC50 (OCI-LY10 cells; Homo sapiens, OCI-Ly10, 72 h incubation): < 0.31 nM
SMILES: NC(=O)c1ncc(N2CCCCC2)nc1Nc1ccc(C2CCN(CC3CN(c4ccc5c(C6CCC(=O)NC6=O)noc5c4)C3)CC2)cc1 (centres unmarked) [Compound 94]
